Read-outs that look alike come from different tables or passages of the source. One block for each compound: values may come before it.
Legend:
Capan-1 = experiment: Cell viability assay (CCK-8); assay type: cell-based; settings: CCK-8, 96 hours, Pancreas, read-out: IC50 (95% Cl)
Procedure: (§1) Cell viability was determined using Cell Counting Kit 8 (CCK-8). Cells were seeded into 96-well plates at 3000-10000 cells/well. After incubation overnight, drugs were added at different concentrations. Plates were incubated in a 5% CO2, 37° C. humidified chamber for 96 hours. CCK8 reagent was added thereto and the plates were placed back to the incubator until the absorbance at 450 nm of untreated control cells was greater than 1.0. Growth inhibition was measured as the percent growth relative to untreated cells. Dose response curve was generated from the mean values of two or three tests, and IC50 values were calculated using Prism GraphPad software.
(§2) The anti-tumor efficacy of different payloads on different tumor cell lines was detected by CCK-8, and the results are shown in FIG. 5.

HCC1806 = experiment: Cell viability assay (CCK-8); assay type: cell-based; settings: CCK-8, 96 hours, Mamary, read-out: IC50 (95% Cl)
Procedure: as §1, §2

HT29 = experiment: Cell viability assay (CCK-8); assay type: cell-based; settings: CCK-8, 96 hours, Colon, read-out: IC50 (95% Cl)
Procedure: as §1, §2

BXPC-3 = experiment: Cell viability assay (CCK-8); assay type: cell-based; settings: CCK-8, 96 hours, Pancreas, read-out: IC50 (95% Cl)
Procedure: as §1, §2

SK-MES-1 = experiment: Cell viability assay (CCK-8); assay type: cell-based; settings: CCK-8, 96 hours, Lung, read-out: IC50 (95% Cl)
Procedure: as §1, §2

MDA-MB-231 = experiment: Cell viability assay (CCK-8); assay type: cell-based; settings: CCK-8, 96 hours, Mamary, read-out: IC50 (95% Cl)
Procedure: as §1, §2

SKBR3 = experiment: Cell viability assay (CCK-8); assay type: cell-based; settings: CCK-8, 96 hours, read-out: IC50 (95% Cl)
Procedure: as §1, §2

NCI-H1688 = experiment: Cell viability assay (CCK-8); assay type: cell-based; settings: CCK-8, 96 hours, Lung, read-out: IC50 (95% Cl)
Procedure: as §1, §2

COLO205 = experiment: Cell viability assay (CCK-8); assay type: cell-based; settings: CCK-8, 96 hours, read-out: IC50 (95% Cl)
Procedure: as §1, §2

MDA-MB-468 = experiment: Cell viability assay (CCK-8); assay type: cell-based; settings: CCK-8, 96 hours, read-out: IC50 (95% Cl)
Procedure: as §1, §2

CFPAC-1 = experiment: Cell viability assay (CCK-8); assay type: cell-based; settings: CCK-8, 96 hours, read-out: IC50 (95% Cl)
Procedure: as §1, §2

SCLC-21H = experiment: Cell viability assay (CCK-8); assay type: cell-based; settings: CCK-8, 96 hours, read-out: IC50 (95% Cl)
Procedure: as §1, §2

NCIH2452 = experiment: Cell viability assay (CCK-8); assay type: cell-based; settings: ADCs; CCK-8, 96 hours; cell 'HOC2401' [sic], Lung; read-out: IC50 (95% Cl)
Procedure: as §1, §2

[1] = Adverse effects and weight loss of mice treated in the efficacy models; assay type: in vivo, BALB/c nu/nu mice; settings: hRS7-VK-MMAE 3 mg/kg; hRS7-VK-SN38 3 or 10 mg/kg; PTX alone
Text: (§3) Five-week-old female athymic BALB/c nu/nu mice were purchased from Charles River Company (Shanghai, China), and mice were randomly divided into 5-6 mice/group. Animal handling and procedures were approved and performed in accordance with the requirements of the Institutional Animal Care and Use Committee (IACUC) of Shanghai Institute of Materia Medica, Chinese Academy of Sciences. All models were inoculated subcutaneously on the side of mice. BXPC-3, HCC1806 and NCIH1688 cells were established by injecting and homogenizing 5 × 10^6 cells in Matrigel matrix. COLO205 cells were established by injecting and suspending 1 × 10^7 cells in Matrigel matrix. After the tumor volume reached about 200 mm^3, the tumor-bearing mice were randomly divided into treatment groups and a control group according to the tumor volume. Each drug was administered intraperitoneally. Mice were injected at doses of 3 or 10 mg/kg (10 mL/kg). Tumor volume was defined as length × ½ × width × width. The percentage of inhibition was calculated by the following formula: (1-average tumor volume of the treatment group/average tumor volume of the control group)×100%. Toxicity of the different treatment groups was assessed by monitoring weight loss.

[2] = Dose tolerability, single intravenous dose acute toxicity; assay type: in vivo; settings: single intravenous dose 60 mg/kg, BALB/c mice
Procedure: Dose tolerability assay was performed in BALB/c mice (3 mice per dose). The drug was given in a single intravenous dose. The injection doses of hRS7-VK-PTX were 60, 80 and 100 mg/kg, and the injection doses of hRS7-VK-MMAE were 60 and 80 mg/kg, respectively. Toxicity was assessed by observing mouse behavior, weight loss and survival. The weight change rate (%) was calculated as: (body weight - body weight before treatment)/(body weight before treatment) × 100%.
The safety of relatively high doses of hRS7-VK-PTX in BALB/c mice was studied by an acute toxicity experiment with single intravenous administration in mice.

NCIH1688 cells = experiment: Transplanted tumor from NCIH1688 cells alone (not expressing Trop-2); assay type: in vivo, BALB/c-nu/nu mice; settings: hRS7-VK-PTX 10 mg/kg, hRS7-VK-MMAE 3 mg/kg
Text: as §3, with “Mice were injected at doses of 3 or 10 mg/kg (10 mL/kg). Tumor volume was defined as length × ½ × width × width.” left out
(§4) A mixture of Trop-2-positive tumor cells BXPC-3 and Trop-2-negative tumor cells NCIH1688 or NCIH1688 cells alone were inoculated into BALB/c-nu/nu mice (FIG. 1e, right panel), and the “bystander effect” of hRS7-VK-PTX was detected in a mouse transplanted tumor model.

[3] = test system: mixture of Trop-2-positive tumor cells BXPC-3 and Trop-2-negative tumor cells NCIH1688; experiment: Bystander effect: transplanted tumor from mixture of BXPC-3 and NCIH1688 cells; assay type: in vivo, BALB/c-nu/nu mice; settings: 3 mg/kg, transplanted tumors heterogeneously expressing Trop-2
Text: as §3, with “Mice were injected at doses of 3 or 10 mg/kg (10 mL/kg). Tumor volume was defined as length × ½ × width × width.” left out
as §4

[4] = test system: tumor cell lines with different expression levels of Trop-2; experiment: Cell viability assay (CCK-8), comparison across the cell panel; assay type: cell-based; settings: tumor cell lines with different expression levels of Trop-2
Procedure: as §1, §2

Compound: CCc1c2c(nc3ccc(O)cc13)-c1cc3c(c(=O)n1C2)COC(=O)[C@]3(O)CC [SN38]
IC50 (Capan-1; free payloads, cell 'Cepes-3' [sic]): 5.61 nM | IC50 (HCC1806; free payloads, 'HCCHOI' [sic]): 0.412 nM | IC50 (HT29; free payloads, cell 'H123' [sic]): > 305 nM | IC50 (BXPC-3; free payloads, cell 'BKFC-Y' [sic]): 20.8 nM | IC50 (SK-MES-1; free payloads, cell 'SK-M55-1' [sic]): 5.5 nM | IC50 (MDA-MB-231; free payloads, 'MCP-83-21' [sic]): 103 nM | IC50 (SKBR3; free payloads, cell 'SK8RS' [sic], Mamary): 2.14 nM | IC50 (NCI-H1688; free payloads, cell 'NCl-H1828' [sic]): ~4.9 nM | IC50 (COLO205; free payloads, cell 'CCAO205' [sic], Colen): 33.4 nM | IC50 (MDA-MB-468; free payloads, cell printed 'MOA-413-468', Mamary): 3.72 nM | IC50 (CFPAC-1; free payloads, cell CFPAC-1, Pancreas): ~0.281 nM | IC50 (SCLC-21H; free payloads, cell 'ECLC 214' [sic], Small cell lung): 2.14 nM

Compound: hRS7-VK-MMAE
IC50 (Capan-1; ADCs, Cxoo-1 [sic]): > 300 nM | IC50 (HCC1806; ADCs, 'HOC1906' [sic]): 0.0174 nM | IC50 (HT29; ADCs, cell '3128' [sic]): ~250 nM | IC50 (BXPC-3; ADCs, cell RMCA [sic]): 0.0124 nM | IC50 (SK-MES-1; ADCs, cell 'SK-WSS-7' [sic]): > 325 nM | IC50 (MDA-MB-231; ADCs, cell 'SRM-K9-231' [sic]): > 300 nM | IC50 (SKBR3; ADCs, 'SKERS' [sic], Mammary): ~2.24 nM | IC50 (NCI-H1688; ADCs, cell 'HCl-11685' [sic]): ~3.76 nM | IC50 (COLO205; ADCs, cell printed 'COXC28', Colon): > 300 nM | IC50 (MDA-MB-468; ADCs, SRM-M9-409, Mammary): 0.0645 nM | IC50 (NCIH2452): ~1.21 nM | IC50 (CFPAC-1; ADCs, cell CPAC-1 [sic], Pancreas): > 300 nM | IC50 (SCLC-21H; ADCs, SRM-C-21H): 0.0324 nM | adverse effects or weight loss in treated mice, relative to hRS7-VK-PTX (none) [1]: stark contrast | adverse reactions [2]: severe adverse reactions | body weight loss [2]: more than 15% | killing effect on transplanted tumors not expressing Trop-2 (NCIH1688 cells): had a killing effect | tumor growth inhibition index (TGI) [3]: 91.7%

IC50 (HCC1806; Homo sapiens, HCC1806, free payloads, 'HCCHOI' [sic]): 2.46 nM | IC50 (HT29; Homo sapiens, HT-29, free payloads, cell 'H123' [sic]): > 300 nM | IC50 (BXPC-3; Homo sapiens, BXPC-3, free payloads, cell 'BKFC-Y' [sic]): 0.468 nM | IC50 (SK-MES-1; Homo sapiens, SK-MES-1, free payloads, cell 'SK-M55-1' [sic]): 53.1 nM | IC50 (MDA-MB-231; Homo sapiens, MDA-MB-231, free payloads, 'MCP-83-21' [sic]): > 300 nM | IC50 (SKBR3; Homo sapiens, SK-BR-3, free payloads, cell 'SK8RS' [sic], Mamary): ~852 nM | IC50 (NCI-H1688; NCI-H1688, free payloads, cell 'NCl-H1828' [sic]): 37.3 nM | IC50 (COLO205; Homo sapiens, COLO 205, free payloads, cell 'CCAO205' [sic], Colen): > 300 nM | IC50 (MDA-MB-468; Homo sapiens, MDA-MB-468, free payloads, cell printed 'MOA-413-468', Mamary): 7.22 nM
Compound: CC(=O)O[C@H]1C(=O)[C@@]2(C)[C@H]([C@H](OC(=O)c3ccccc3)[C@]3(O)C[C@H](OC(=O)[C@H](O)[C@@H](NC(=O)c4ccccc4)c4ccccc4)C(C)=C1C3(C)C)[C@]1(OC(C)=O)CO[C@@H]1C[C@@H]2O [PTX, Paclitaxel]
IC50 (Capan-1; Homo sapiens, CAPAN-1, free payloads, cell 'Cepes-3' [sic]): 7.43 nM | IC50 (CFPAC-1; Homo sapiens, free payloads, cell CFPAC-1, Pancreas): > 300 nM | IC50 (SCLC-21H; Homo sapiens, SCLC-21H, free payloads, cell 'ECLC 214' [sic], Small cell lung): ~32 nM | adverse effects or weight loss in treated mice, relative to hRS7-VK-PTX (none) [1]: stark contrast | cytotoxicity of individual payload molecules [4]: weaker than that of MMAE, but close to that of SN38

From patent US20230346969A1, “INTERMEDIATE FOR PREPARING ANTIBODY-DRUG CONJUGATE (ADC), PREPARATION METHOD THEREFOR, AND USE THEREOF” (priority 2020, published 2023)
